Experimental findings from patent US9388174B2, “Azole benzene derivative” (TEIJIN PHARMA LIMITED, priority 2013, dated 2016) are described below.

The subject of one test is level of uric acid in the plasma. The experiment in a line: Hypouricemic effect (oxonic acid-induced hyperuricemic beagle dogs). Type of test: in vivo. To be noted: hyperuricemic beagle dog, oral, 10 mg/kg, 8 hours after administration. The procedure: Potassium oxonate (50 mg/kg) was subcutaneously administrated before and 4 hours after compound administration. After the blood was collected from the cephalic vein at 8 hours after administration, the plasma was separated. The level of uric acid in the plasma sample was measured by LC-MS/MS method and the percentage of hypouricemic effect was determined by the following expression: Percentage of hypouricemic effect (%)=(Level of uric acid of the control animal−Level of uric acid of the test compound-administered animal)×100/Level of uric acid of the control animal.
Take `Cc1nc(-c2ccc(OCC(C)C)c(-n3cnnn3)c2)sc1C(=O)O` [Compound No. 25, 4-methyl-2-[4-(2-methylpropoxy)-3-(1H-1,2,3,4-tetrazol-1-yl)phenyl]-1,3-thiazole-5-carboxylic acid]: the hypouricemic effect result is “showed a hypouricemic effect”.

In another test the target is T1, oxidase-type xanthine oxidoreductase (from buttermilk) (Bos taurus, UniProt P80457).
T1 construct: purchased Calbiochem Novabiochem Corp; host or cells: buttermilk (natural source)
T1 sequence (P80457 whole entry): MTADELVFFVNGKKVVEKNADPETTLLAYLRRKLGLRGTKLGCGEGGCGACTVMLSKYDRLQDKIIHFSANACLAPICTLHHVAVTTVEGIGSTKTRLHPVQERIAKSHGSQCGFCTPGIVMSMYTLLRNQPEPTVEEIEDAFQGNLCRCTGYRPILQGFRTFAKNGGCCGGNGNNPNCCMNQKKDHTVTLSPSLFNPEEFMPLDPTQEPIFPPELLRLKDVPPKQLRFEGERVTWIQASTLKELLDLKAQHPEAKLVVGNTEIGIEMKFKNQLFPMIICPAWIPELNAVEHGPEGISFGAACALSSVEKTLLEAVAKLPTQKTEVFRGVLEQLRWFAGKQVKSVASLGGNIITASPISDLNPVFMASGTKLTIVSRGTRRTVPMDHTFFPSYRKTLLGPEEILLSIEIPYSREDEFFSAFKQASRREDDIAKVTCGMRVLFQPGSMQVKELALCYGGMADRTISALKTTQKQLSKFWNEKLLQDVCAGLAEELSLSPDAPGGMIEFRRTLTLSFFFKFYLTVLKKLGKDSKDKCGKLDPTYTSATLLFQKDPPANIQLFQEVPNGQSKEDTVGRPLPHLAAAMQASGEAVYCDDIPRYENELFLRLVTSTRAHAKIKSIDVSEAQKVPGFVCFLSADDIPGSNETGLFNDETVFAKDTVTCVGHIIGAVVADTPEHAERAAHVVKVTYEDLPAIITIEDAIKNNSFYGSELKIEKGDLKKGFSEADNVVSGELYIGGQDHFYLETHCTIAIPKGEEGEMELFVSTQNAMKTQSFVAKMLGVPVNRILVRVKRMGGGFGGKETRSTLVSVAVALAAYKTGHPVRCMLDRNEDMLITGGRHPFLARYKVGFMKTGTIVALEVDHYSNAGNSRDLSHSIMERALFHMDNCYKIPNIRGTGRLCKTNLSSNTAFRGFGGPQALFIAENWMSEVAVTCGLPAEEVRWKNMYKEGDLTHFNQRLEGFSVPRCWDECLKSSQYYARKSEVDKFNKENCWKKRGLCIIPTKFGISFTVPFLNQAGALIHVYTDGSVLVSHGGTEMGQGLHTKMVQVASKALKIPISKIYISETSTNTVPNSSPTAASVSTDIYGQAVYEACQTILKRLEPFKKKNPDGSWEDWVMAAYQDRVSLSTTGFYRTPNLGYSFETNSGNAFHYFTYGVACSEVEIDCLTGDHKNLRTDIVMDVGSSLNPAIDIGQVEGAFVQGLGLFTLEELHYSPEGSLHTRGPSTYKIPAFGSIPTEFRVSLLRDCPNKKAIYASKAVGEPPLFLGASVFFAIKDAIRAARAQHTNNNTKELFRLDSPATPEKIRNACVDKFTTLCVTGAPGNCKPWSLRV
The experiment in a line: xanthine oxidase inhibitory activity (change of absorbance at 290 nm). The note with it: xanthine substrate, read-out: Inhibitor Activity. Type of test: biochemical. Here is the method: Test compound was dissolved in DMSO (manufactured by Sigma Co.) to prepare a 20 mM solution. The solution was adjusted to an optimal concentration and used for the testing.
This evaluation was carried out by measuring oxidase-type xanthine oxidoreductase activity. Concretely, a xanthine (manufactured by Sigma Co.) solution was prepared at 10 mM using a 20 mM sodium hydroxide solution and then mixed with 100 mM phosphate buffer to adjusted to 30 μM. 75 μL of the solution was added to each well of the 96-well plate. The test compound diluted with DMSO at 100 times of a final concentration was added to each well at 1.5 μL per well. […] Immediately after mixing, the change of absorbance at 290 nm was measured for 5 minutes. The enzyme activity of DMSO solution without test compound was used as 100% control, and the inhibitory rate of the test compounds was calculated. Fifty percent inhibitory concentration of the test compounds on the oxidase-type xanthine oxidoreductase activity was calculated by fitting to the dose-response curve.
For the compound `Cc1ccc(F)c(Oc2ccc(-c3nc(C)c(C(=O)O)s3)cc2-n2cnnn2)c1` [compound 48, 2-[4-(2-fluoro-5-methylphenoxy)-3-(1H-1,2,3,4-tetrazol-1-yl)phenyl]-4-methyl-1,3-thiazole-5-carboxylic acid], the IC50 was 1 to 5 nM.

As to `Cc1nc(-c2ccc(OC3CCCCC3)c(-n3ccnc3)c2)sc1C(=O)O` [compound 6, 2-[4-(cyclohexyloxy)-3-[1H-imidazol-1-yl)phenyl]-4-methyl-1,3-thiazole-5-carboxylic acid], the IC50 lay in the range of 5 to 10 nM.

In the case of `Cc1nc(-c2ccc(OCC(C)C)c(-n3ccnc3)c2)sc1C(=O)O` [Compound No. 1, 2-[3-(1H-imidazol-1-yl)-4-(2-methylpropoxy)phenyl]-4-methyl-1,3-thiazole-5-carboxylic acid], the IC50 was 1 to 5 nM.

`Cc1nc(-c2ccc(OC3CCCC3)c(-n3ccnc3)c2)sc1C(=O)O` [Compound No. 5, 2-[4-(cyclopentyloxy)-3-(1H-imidazol-1-yl)phenyl]-4-methyl-1,3-thiazole-5-carboxylic acid]: the IC50 lay within 5 to 10 nM.

As for `Cc1nc(-c2ccc(Oc3ccccc3)c(-n3ccnc3)c2)sc1C(=O)O` [Compound No. 7, 2-[3-(1H-imidazol-1-yl)-4-phenoxyphenyl]-4-methyl-1,3-thiazole-5-carboxylic acid], the IC50 was more than 10 nM.

With `Cc1nc(-c2ccc(OCC(C)C)c(-n3ccnc3C)c2)sc1C(=O)O` [compound 9, 4-methyl-2-[3-(2-methyl-1H-imidazol-1-yl)-4-(2-methylpropoxy)phenyl]-1,3-thiazole-5-carboxylic acid], the IC50 fell in the range of 1 to 5 nM.

For `Cc1ccccc1Oc1ccc(-c2nc(C)c(C(=O)O)s2)cc1-n1cnnn1` [compound 44, 2-[4-(2-methylphenoxy)-3-(1H-1,2,3,4-tetrazol-1-yl)phenyl]-4-methyl-1,3-thiazole-5-carboxylic acid], the IC50 was 1 to 5 nM.

Take `Cc1nc(-c2ccc(SCC(C)C)c(-n3cnnn3)c2)sc1C(=O)O` [Compound No. 49, 4-methyl-2-{4-[(2-methylpropyl)sulfanyl]-3-(1H-1,2,3,4-tetrazol-1-yl)phenyl}-1,3-thiazole-5-carboxylic acid]: the IC50 lay in the range of 1 to 5 nM.

On to `Cc1nc(-c2ccc(Oc3ccccc3F)c(-n3cnnn3)c2)sc1C(=O)O` [compound 34, 2-[4-(2-fluorophenoxy)-3-(1H-1,2,3,4-tetrazol-1-yl)phenyl]-4-methyl-1,3-thiazole-5-carboxylic acid], for which the IC50 is 1 to 5 nM.

Consider `CC(C)Oc1ccc(-c2ncc(C(=O)O)s2)cc1-n1cnnn1` [compound 31, 2-[4-(propan-2-yloxy)-3-(1H-1,2,3,4-tetrazol-1-yl)phenyl]-1,3 thiazole-5-carboxylic acid], for which the IC50 lay within 1 to 5 nM.

Consider `Cc1nc(-c2ccc(Oc3ccccc3)c(-n3cnnn3)c2)sc1C(=O)O` [Compound No. 33, 4-methyl-2-[4-phenoxy-3-(1H-1,2,3,4-tetrazol-1-yl)phenyl]-1,3 thiazole-5-carboxylic acid], for which the IC50 lay in the range of 1 to 5 nM.

`Cc1nc(-c2ccc(OCC(C)C)c(-n3nnnc3C)c2)sc1C(=O)O` [compound 10, 4-methyl-2-[3-(5-methyl-1H-1,2,3,4-tetrazol-1-yl)-4-(2-methylpropoxy)phenyl]-1,3-thiazole-5-carboxylic acid]: the IC50 lay in the range of 5 to 10 nM.

As for `Cc1nc(-c2ccc(Oc3ccccc3)c(-n3ccnn3)c2)sc1C(=O)O` [compound 22, 4-methyl-2-[4-phenoxy-3-(1H-1,2,3-triazol-1-yl)phenyl]-1,3-thiazole-5-carboxylic acid], the IC50 was more than 10 nM.

Consider `Cc1nc(-c2ccc(OCC(C)C)c(-n3ncnc3C)c2)sc1C(=O)O` [compound 14, 4-methyl-2-[3-(5-methyl-1H-1,2,4-triazol-1-yl)-4-(2-methylpropoxy)phenyl]-1,3-thiazole-5-carboxylic acid], for which the IC50 was 1 to 5 nM.

For the compound `Cc1nc(-c2ccc(OCC(C)(C)C)c(-n3ccnn3)c2)sc1C(=O)O` [compound 18, 2-[4-(2,2-dimethylpropoxy)-3-(1H-1,2,3-triazol-1-yl)phenyl]-4-methyl-1,3-thiazole-5-carboxylic acid], the IC50 fell in the range of 1 to 5 nM.

For `CC(C)COc1ccc(-c2ncc(C(=O)O)s2)cc1-n1ccnn1` [compound 21, 2-[4-(2-methylpropoxy)-3-(1H-1,2,3-triazol-1-yl)phenyl]-1,3-thiazole-5-carboxylic acid], the IC50 was 1 to 5 nM.

For `COc1ccccc1Oc1ccc(-c2nc(C)c(C(=O)O)s2)cc1-n1cnnn1` [compound 35, 2-[4-(2-methoxyphenoxy)-3-(1H-1,2,3,4-tetrazol-1-yl)phenyl]-4-methyl-1,3-thiazole-5-carboxylic acid], the IC50 lay within 1 to 5 nM.
